Data from patent US11815511B2 (priority 2019, dated 2023).

The compounds below were run on anti-4,15-diacetoxyscirpenol monoclonal antibody secreted by hybridoma cell strain DAS5G11E7. Settings: in ng/mL.
Format: binding, mouse

Compound | IC50
CC1=C[C@H]2O[C@@H]3[C@H](O)C[C@](C)([C@@]2(CO)[C@H](O)C1=O)[C@]31CO1 [DON, Deoxynivalenol] | >100,000
3-acetyldeoxynivalenol [3-acetyl-DON] | >100,000
C[C@@H]1Cc2c(Cl)cc(C(=O)N[C@@H](Cc3ccccc3)C(=O)O)c(O)c2C(=O)O1 [OTA, ochratoxin] | >100,000
HT-2 toxin | >100,000
